According to patent publication US11008337B2, “Chiral diaryl macrocycles as modulators of protein kinases” (Turning Point Therapeutics, Inc., priority 2015, dated 2021):

Experiments:
Type in all cases: cell-based
[1] = system: T cell lymphoma Karpas-299 cell line (harboring endogenous NPM-ALK fusion gene); assay: Cell proliferation assay, Karpas-299 cells (CellTiter-Glo); settings: Homo sapiens, 72 hours incubation
Experimental: Cell Proliferation Assays.
Colorectal cell lines KM 12 (harboring endogenous TPM3-TRKA fusion gene) cells were cultured in DMEM medium, supplemented with 10% fetal bovine serum and 100 U/mL of penicillin/streptomycin. 5000 cells were seeded in 384 well white plate for 24 hours before compounds treatment. Cell proliferation was measured using CellTiter-Glo luciferase-based ATP detection assay (Promega) following the manufactures's protocol after 72 hours incubation. IC50 determinations were performed using GraphPad Prism software (GraphPad, Inc., San Diego, Calif.). Alternatively, essential thrombocythemia cell line SET-2 cells (harboring endogenous JAK2 […] point mutation) or T cell lymphoma Karpas-299 cell line (harboring endogenous NPM-ALK fusion gene) were cultured in RPMI medium, supplemented with 10% fetal bovine serum and 100 U/mL of penicillin/streptomycin. 5000 cells were seeded in 384 well white plate for 24 hours before compounds treatment. Cell proliferation was measured using CellTiter-Glo luciferase-based ATP detection assay (Promega) following the manufactures's protocol after 72 hours incubation. IC50 determinations were performed using GraphPad Prism software (GraphPad, Inc., San Diego, Calif.).

[2] = system: Colorectal cell lines KM 12 (harboring endogenous TPM3-TRKA fusion gene); assay: Cell proliferation assay, KM12 cells (CellTiter-Glo); settings: Homo sapiens, 72 hours incubation
CD74-ROS1 Ba/F3 = biological target: T1, CD74-ROS1 Ba/F3 (Homo sapiens, UniProt P08922); assay: Cell proliferation assay, CD74-ROS1 Ba/F3 stable cell line (CellTiter-Glo); settings: Ba/F3-CD74-ROS1 wild type cells, 72 hours compound incubation; read-out: Cell Proliferation IC50 CD74-ROS1 Ba/F3
T1 construct: fused on or other part: P04233 (HLA class II histocompatibility antigen gamma chain)
T1 sequence (P08922 whole entry, change not shown, the tested form may be a part): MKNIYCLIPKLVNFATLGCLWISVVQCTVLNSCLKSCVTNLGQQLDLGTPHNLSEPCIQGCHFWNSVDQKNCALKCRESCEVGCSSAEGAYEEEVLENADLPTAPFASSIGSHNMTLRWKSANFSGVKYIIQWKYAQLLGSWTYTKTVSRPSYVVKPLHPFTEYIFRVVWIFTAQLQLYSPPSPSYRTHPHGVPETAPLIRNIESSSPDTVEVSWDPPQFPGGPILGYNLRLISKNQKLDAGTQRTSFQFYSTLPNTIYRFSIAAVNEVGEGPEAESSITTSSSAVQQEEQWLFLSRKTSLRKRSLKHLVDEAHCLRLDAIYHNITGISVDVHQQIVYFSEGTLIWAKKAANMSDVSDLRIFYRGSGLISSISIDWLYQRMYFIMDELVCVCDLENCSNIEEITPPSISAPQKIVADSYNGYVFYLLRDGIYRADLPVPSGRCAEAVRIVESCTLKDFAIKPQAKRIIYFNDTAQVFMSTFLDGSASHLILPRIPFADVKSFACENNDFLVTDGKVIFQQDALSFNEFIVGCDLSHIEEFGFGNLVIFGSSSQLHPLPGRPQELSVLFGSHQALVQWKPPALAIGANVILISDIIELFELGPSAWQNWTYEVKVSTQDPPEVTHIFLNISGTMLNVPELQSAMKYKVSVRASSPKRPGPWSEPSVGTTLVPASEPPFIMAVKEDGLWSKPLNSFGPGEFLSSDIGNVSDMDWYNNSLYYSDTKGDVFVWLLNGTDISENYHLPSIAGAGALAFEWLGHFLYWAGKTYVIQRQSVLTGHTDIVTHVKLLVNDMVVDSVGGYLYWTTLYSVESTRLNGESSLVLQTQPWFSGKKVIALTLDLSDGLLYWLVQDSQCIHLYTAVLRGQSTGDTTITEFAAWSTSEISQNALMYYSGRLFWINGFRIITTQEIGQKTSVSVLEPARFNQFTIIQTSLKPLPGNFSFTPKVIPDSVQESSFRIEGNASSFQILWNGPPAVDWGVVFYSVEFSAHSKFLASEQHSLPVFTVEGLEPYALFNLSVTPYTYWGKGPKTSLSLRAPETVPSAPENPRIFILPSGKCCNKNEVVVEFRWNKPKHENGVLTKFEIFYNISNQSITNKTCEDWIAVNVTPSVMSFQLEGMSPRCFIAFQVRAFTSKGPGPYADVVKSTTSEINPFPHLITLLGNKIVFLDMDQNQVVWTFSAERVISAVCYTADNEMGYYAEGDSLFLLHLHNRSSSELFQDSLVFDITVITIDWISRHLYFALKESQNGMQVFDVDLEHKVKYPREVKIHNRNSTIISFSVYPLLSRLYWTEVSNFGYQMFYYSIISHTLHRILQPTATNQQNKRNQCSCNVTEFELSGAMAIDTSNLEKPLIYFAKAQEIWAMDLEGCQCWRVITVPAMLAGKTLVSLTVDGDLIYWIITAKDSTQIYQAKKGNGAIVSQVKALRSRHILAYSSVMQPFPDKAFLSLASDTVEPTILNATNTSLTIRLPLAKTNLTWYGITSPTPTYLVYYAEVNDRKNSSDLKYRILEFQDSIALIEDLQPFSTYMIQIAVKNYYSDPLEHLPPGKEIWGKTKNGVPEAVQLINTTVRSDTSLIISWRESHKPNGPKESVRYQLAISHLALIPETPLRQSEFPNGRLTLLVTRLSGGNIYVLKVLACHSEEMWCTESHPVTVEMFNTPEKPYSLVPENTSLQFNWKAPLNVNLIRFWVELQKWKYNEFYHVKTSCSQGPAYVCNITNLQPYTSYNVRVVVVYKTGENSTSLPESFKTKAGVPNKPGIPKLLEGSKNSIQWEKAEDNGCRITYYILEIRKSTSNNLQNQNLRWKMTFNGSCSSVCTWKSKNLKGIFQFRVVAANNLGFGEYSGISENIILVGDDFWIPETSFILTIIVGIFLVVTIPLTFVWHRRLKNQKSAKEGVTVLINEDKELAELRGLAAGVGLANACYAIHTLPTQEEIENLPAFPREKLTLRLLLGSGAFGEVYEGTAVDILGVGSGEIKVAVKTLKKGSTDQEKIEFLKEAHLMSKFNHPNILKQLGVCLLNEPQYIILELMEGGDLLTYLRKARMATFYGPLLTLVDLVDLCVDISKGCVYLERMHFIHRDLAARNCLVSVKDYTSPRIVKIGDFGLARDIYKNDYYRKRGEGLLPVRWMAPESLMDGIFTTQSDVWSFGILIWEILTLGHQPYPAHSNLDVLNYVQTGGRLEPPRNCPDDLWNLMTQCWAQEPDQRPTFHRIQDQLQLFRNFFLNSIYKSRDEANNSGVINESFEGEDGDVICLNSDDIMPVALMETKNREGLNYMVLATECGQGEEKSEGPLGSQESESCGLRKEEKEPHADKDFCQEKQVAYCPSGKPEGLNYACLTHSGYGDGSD
Excerpt: Creation of CD74-ROS1 and EML4-ALK Ba/F3 Stable Cell Lines and Cell Proliferation Assays.
The CD74-ROS1 wild-type gene and EML4-ALK wild-type gene (variant 1) were synthesized at GenScript and cloned into pCDH-CMV-MCS-EF1-Puro plasmid (System Biosciences, Inc). Ba/F3-CD74-ROS1 and Ba/F3-EML4-ALK wild type cell lines were generated by infecting Ba/F3 cells with lentivirus containing CD74-ROS1 wide-type and EML4-ALK wild type. Stable cell lines were selected by puromycin treatment, followed by IL-3 withdrawal. 3000 cells were seeded in 384 well white plate overnight before compound treatment. Cell proliferation was measured using CellTiter-Glo luciferase-based ATP detection assay (Promega) following the manufactures's protocol after 72 hours of various concentration of compound incubation. IC50 determinations were performed using GraphPad Prism software (GraphPad, Inc., San Diego, Calif.).

[3] = system: essential thrombocythemia cell line SET-2 cells (harboring endogenous JAK2 point mutation); assay: Cell proliferation assay, SET-2 cells (CellTiter-Glo); settings: Homo sapiens, 72 hours incubation, read-out: Cell Proliferation IC50 SET2
Summary of the method: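 Karpas-299 (NPM-ALK) or SET-2 (JAK2 […]) cells in RPMI with 10% FBS, seeded 24 h before compound addition. Viability read by CellTiter-Glo ATP luminescence after 72 h incubation; IC50 derived from dose–response curves.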

EML4-ALK Ba/F3 = biological target: T2, EML4-ALK Ba/F3 (Homo sapiens, UniProt Q9UM73); assay: Cell proliferation assay, EML4-ALK Ba/F3 stable cell line (CellTiter-Glo); settings: Ba/F3-EML4-ALK wild type (variant 1) cells, 72 hours compound incubation; read-out: Cell Proliferation IC50 EML4-ALK Ba/F3
T2 construct: fused on or other part: Q9HC35 (Echinoderm microtubule-associated protein-like 4)
T2 sequence (Q9UM73 whole entry, change not shown, the tested form may be a part): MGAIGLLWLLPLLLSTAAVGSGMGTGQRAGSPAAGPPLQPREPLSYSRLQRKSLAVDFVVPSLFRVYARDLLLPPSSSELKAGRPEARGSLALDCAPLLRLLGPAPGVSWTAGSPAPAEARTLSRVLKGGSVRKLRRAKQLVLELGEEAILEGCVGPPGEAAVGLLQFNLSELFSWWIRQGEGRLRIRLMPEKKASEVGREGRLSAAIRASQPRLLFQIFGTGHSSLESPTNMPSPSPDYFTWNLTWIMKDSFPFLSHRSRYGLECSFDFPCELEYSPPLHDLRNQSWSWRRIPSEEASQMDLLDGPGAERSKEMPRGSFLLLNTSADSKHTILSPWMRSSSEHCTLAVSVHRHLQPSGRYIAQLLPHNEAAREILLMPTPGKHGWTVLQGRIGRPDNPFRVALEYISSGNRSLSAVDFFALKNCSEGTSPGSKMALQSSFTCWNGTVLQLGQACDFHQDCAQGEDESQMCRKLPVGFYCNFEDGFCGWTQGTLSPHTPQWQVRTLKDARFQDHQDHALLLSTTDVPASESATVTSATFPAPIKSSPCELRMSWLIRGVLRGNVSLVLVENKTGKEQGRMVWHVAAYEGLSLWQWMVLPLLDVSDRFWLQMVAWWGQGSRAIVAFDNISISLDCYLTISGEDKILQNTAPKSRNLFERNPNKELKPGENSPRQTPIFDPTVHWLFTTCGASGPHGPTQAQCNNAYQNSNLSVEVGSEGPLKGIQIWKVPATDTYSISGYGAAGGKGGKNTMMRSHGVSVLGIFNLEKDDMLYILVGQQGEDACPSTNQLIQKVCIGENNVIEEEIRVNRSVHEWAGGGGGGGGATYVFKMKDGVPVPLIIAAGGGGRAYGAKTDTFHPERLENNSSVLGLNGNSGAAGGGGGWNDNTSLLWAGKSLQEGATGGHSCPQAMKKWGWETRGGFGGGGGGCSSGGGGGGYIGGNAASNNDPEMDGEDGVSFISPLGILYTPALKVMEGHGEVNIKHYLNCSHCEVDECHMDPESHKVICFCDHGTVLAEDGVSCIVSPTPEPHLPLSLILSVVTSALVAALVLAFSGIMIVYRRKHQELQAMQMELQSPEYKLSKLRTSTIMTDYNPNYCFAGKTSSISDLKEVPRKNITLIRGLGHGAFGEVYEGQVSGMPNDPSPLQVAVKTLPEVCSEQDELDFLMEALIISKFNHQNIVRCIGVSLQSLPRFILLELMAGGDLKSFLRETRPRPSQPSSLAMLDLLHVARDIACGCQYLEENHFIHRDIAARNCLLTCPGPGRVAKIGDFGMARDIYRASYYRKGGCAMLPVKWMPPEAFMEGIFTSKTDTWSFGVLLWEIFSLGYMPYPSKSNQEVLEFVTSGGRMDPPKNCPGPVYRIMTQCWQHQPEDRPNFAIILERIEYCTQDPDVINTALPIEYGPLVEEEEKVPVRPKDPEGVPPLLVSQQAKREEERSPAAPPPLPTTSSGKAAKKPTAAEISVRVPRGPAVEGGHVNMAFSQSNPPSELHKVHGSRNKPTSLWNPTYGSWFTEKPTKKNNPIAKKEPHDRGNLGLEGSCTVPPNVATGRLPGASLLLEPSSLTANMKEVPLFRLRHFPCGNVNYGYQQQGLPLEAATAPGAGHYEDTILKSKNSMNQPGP
Summary of the method: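 Ba/F3 cells were lentivirally transduced with wild-type CD74-ROS1 or EML4-ALK (variant 1), selected with puromycin and made IL-3-independent. Cells (3000/well) were seeded overnight and then treated with the compounds at various concentrations for 72 h. Proliferation was read by CellTiter-Glo ATP luminescence, and IC50 values were fitted.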

Row | IC50 [1] | GI50 (CD74-ROS1 Ba/F3) | GI50 (EML4-ALK Ba/F3) | SMILES | IC50 [2] | IC50 [3]
1 | 193 nM | 0.5 nM | 406 nM | CC[C@H]1Nc2ccn3ncc(c3n2)C(=O)NCCOc2ccc(F)cc21 [Compound 19, (13R)-13-ethyl-11-fluoro-6,7,13,14-tetrahydro-1,15-ethenopyrazolo[4,3-f][1,4,8,10]benzoxatriazacyclotridecin-4(5H)-one] | 0.6 nM | 294 nM
2 | 264 nM | 8 nM | 475 nM | CC(C)(O)[C@H]1Nc2ccn3ncc(c3n2)C(=O)NCCOc2ccc(F)cc21 [Compound 24, (13S)-11-fluoro-13-(2-hydroxypropan-2-yl)-6,7,13,14-tetrahydro-1,15-ethenopyrazolo[4,3-f][1,4,8,10]benzoxatriazacyclotridecin-4(5H)-one] | 5 nM | 1320 nM

Continued, compound first:

Row | SMILES | IC50 [1] | GI50 (CD74-ROS1 Ba/F3) | GI50 (EML4-ALK Ba/F3) | IC50 [2] | IC50 [3]
3 | CC[C@H]1CNC(=O)c2cnn3ccc(nc23)N[C@H](CC)c2cc(F)ccc2O1 [Compound 20, (7S,13R)-7,13-diethyl-11-fluoro-6,7,13,14-tetrahydro-1,15-ethenopyrazolo[4,3-f][1,4,8,10]benzoxatriazacyclotridecin-4(5H)-one] | 144 nM | 0.2 nM | 151 nM | 3 nM | 404 nM
4 | CC[C@H]1COc2ccc(F)cc2[C@@H](CC)Nc2ccn3ncc(c3n2)C(=O)N1 [Compound 21, (6S,13R)-6,13-diethyl-11-fluoro-6,7,13,14-tetrahydro-1,15-ethenopyrazolo[4,3-f][1,4,8,10]benzoxatriazacyclotridecin-4(5H)-one] | 8030 nM | 45.2 nM | 6790 nM | 3 nM | 1130 nM
5 | O=C1NCCOc2ccc(F)cc2[C@@H](CCO)Nc2ccn3ncc1c3n2 [Compound 22, (13R)-11-fluoro-13-(2-hydroxyethyl)-6,7,13,14-tetrahydro-1,15-ethenopyrazolo[4,3-f][1,4,8,10]benzoxatriazacyclotridecin-4(5H)-one] | 352 nM | 1000 nM | > 10000 nM | 22 nM | 854 nM
